# According to the supplement of paper PMC10307832:
# Legend:
# Assay in all cases: relative viability (nuclei count vs DMSO), 5 days (fraction); higher = more cells survive
# [1] = test system: NCI-H1623
# In short: (§1)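 Cells from lung cancer lines were seeded into 1536-well plates and, one day later, dosed by pin tool. Treatments were either a single drug or a fixed dose of an anchor drug with five library-drug doses (not always all listed) in √10 steps. After 5 days, nuclei were stained in a one-step fixation (final 0.05% Triton X-100, 1% formaldehyde, 1 ug/ml Hoechst) and counted on 4× images, and relative viability is the treated-to-vehicle nuclei ratio, as the median of duplicate plates.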
# [2] = test system: HCC-366
# In short: as §1
# [3] = test system: A549
# In short: as §1
# [4] = test system: NCI-H1437
# In short: as §1
# [5] = test system: LOU-NH91
# In short: as §1
# [6] = test system: EBC-1
# In short: as §1
# [7] = test system: NCI-H3122
# In short: as §1
# [8] = test system: NCI-H1703
# In short: as §1
# [9] = test system: IA-LM
# In short: as §1
# [10] = test system: NCI-H1299
# In short: as §1
# [11] = test system: NCI-H2085
# In short: as §1
# [12] = test system: Calu-6
# In short: as §1
smiles,measurement,setting,value
O=c1cc(N2CCOCC2)oc2c(-c3cccc4c3sc3ccccc34)cccc12 + COc1cc2c(Oc3ccc(NC(=O)C4(C(=O)Nc5ccc(F)cc5)CC4)cc3F)ccnc2cc1OCCCN1CCOCC1 [Foretinib] (partner 0.25 µM),relative viability,[1]; first compound 0.01 µM,0.84
same,relative viability,[1]; first compound 0.03162 µM,0.9
same,relative viability,[1]; first compound 0.1 µM,0.559
same,relative viability,[1]; first compound 0.3162 µM,0.849
same,relative viability,[1]; first compound 1 µM,0.862
same,relative viability,[2]; first compound 0.01 µM,0.941
same,relative viability,[2]; first compound 0.03162 µM,0.918
same,relative viability,[2]; first compound 0.1 µM,0.99
same,relative viability,[2]; first compound 0.3162 µM,0.961
same,relative viability,[2]; first compound 1 µM,0.853
same,relative viability,[3]; first compound 0.01 µM,0.936
same,relative viability,[3]; first compound 0.03162 µM,1
same,relative viability,[3]; first compound 0.1 µM,0.99
same,relative viability,[3]; first compound 0.3162 µM,0.912
same,relative viability,[3]; first compound 1 µM,0.994
same,relative viability,[4]; first compound 0.01 µM,0.877
same,relative viability,[4]; first compound 0.03162 µM,1.28
same,relative viability,[4]; first compound 0.1 µM,1.26
same,relative viability,[4]; first compound 0.3162 µM,1.25
same,relative viability,[4]; first compound 1 µM,1.23
same,relative viability,[5]; first compound 0.01 µM,0.869
same,relative viability,[5]; first compound 0.03162 µM,0.938
same,relative viability,[5]; first compound 0.1 µM,1
same,relative viability,[5]; first compound 0.3162 µM,0.927
same,relative viability,[5]; first compound 1 µM,0.955
same,relative viability,[6]; first compound 0.01 µM,0.0963
same,relative viability,[6]; first compound 0.03162 µM,0.0939
same,relative viability,[6]; first compound 0.1 µM,0.0965
same,relative viability,[6]; first compound 0.3162 µM,0.128
same,relative viability,[6]; first compound 1 µM,0.102
same,relative viability,[7]; first compound 0.01 µM,0.953
same,relative viability,[7]; first compound 0.03162 µM,0.918
same,relative viability,[7]; first compound 0.1 µM,1
same,relative viability,[7]; first compound 0.3162 µM,0.932
same,relative viability,[7]; first compound 1 µM,0.954
same,relative viability,[8]; first compound 0.01 µM,0.333
same,relative viability,[8]; first compound 0.03162 µM,0.314
same,relative viability,[8]; first compound 0.1 µM,0.352
same,relative viability,[8]; first compound 0.3162 µM,0.371
same,relative viability,[8]; first compound 1 µM,0.296
same,relative viability,[9]; first compound 0.01 µM,1.1
same,relative viability,[9]; first compound 0.03162 µM,1.11
same,relative viability,[9]; first compound 0.1 µM,1.23
same,relative viability,[9]; first compound 0.3162 µM,1.06
same,relative viability,[9]; first compound 1 µM,1.25
same,relative viability,[10]; first compound 0.01 µM,1.04
same,relative viability,[10]; first compound 0.03162 µM,1.11
same,relative viability,[10]; first compound 0.1 µM,1.08
same,relative viability,[10]; first compound 0.3162 µM,1.13
same,relative viability,[10]; first compound 1 µM,1.04
same,relative viability,[11]; first compound 0.01 µM,0.96
same,relative viability,[11]; first compound 0.03162 µM,0.941
same,relative viability,[11]; first compound 0.1 µM,0.961
same,relative viability,[11]; first compound 0.3162 µM,0.912
same,relative viability,[11]; first compound 1 µM,0.944
same,relative viability,[12]; first compound 0.01 µM,0.932
same,relative viability,[12]; first compound 0.03162 µM,0.895
same,relative viability,[12]; first compound 0.1 µM,0.891
same,relative viability,[12]; first compound 0.3162 µM,0.888
same,relative viability,[12]; first compound 1 µM,0.839
CCN(CC)CCCCNc1ncc2cc(-c3cc(OC)cc(OC)c3)c(NC(=O)NC(C)(C)C)nc2n1 + COc1cc2c(Oc3ccc(NC(=O)C4(C(=O)Nc5ccc(F)cc5)CC4)cc3F)ccnc2cc1OCCCN1CCOCC1 [Foretinib] (partner 0.25 µM),relative viability,[1]; first compound 0.01 µM,0.859
same,relative viability,[1]; first compound 0.03162 µM,0.674
same,relative viability,[1]; first compound 0.1 µM,0.876
same,relative viability,[1]; first compound 0.3162 µM,0.945
same,relative viability,[1]; first compound 1 µM,0.874
same,relative viability,[2]; first compound 0.01 µM,0.951
same,relative viability,[2]; first compound 0.03162 µM,0.941
same,relative viability,[2]; first compound 0.1 µM,1.05
same,relative viability,[2]; first compound 0.3162 µM,0.981
same,relative viability,[2]; first compound 1 µM,0.999
same,relative viability,[3]; first compound 0.01 µM,1.07
same,relative viability,[3]; first compound 0.03162 µM,0.841
same,relative viability,[3]; first compound 0.1 µM,1.1
same,relative viability,[3]; first compound 0.3162 µM,1.17
same,relative viability,[3]; first compound 1 µM,0.758
same,relative viability,[4]; first compound 0.01 µM,1.47
same,relative viability,[4]; first compound 0.03162 µM,1.21
same,relative viability,[4]; first compound 0.1 µM,1.3
same,relative viability,[4]; first compound 0.3162 µM,1.3
same,relative viability,[4]; first compound 1 µM,1.16
same,relative viability,[5]; first compound 0.01 µM,0.927
same,relative viability,[5]; first compound 0.03162 µM,0.916
same,relative viability,[5]; first compound 0.1 µM,0.959
same,relative viability,[5]; first compound 0.3162 µM,0.977
same,relative viability,[5]; first compound 1 µM,0.912
same,relative viability,[6]; first compound 0.01 µM,0.103
same,relative viability,[6]; first compound 0.03162 µM,0.111
same,relative viability,[6]; first compound 0.1 µM,0.12
same,relative viability,[6]; first compound 0.3162 µM,0.104
same,relative viability,[6]; first compound 1 µM,0.106
same,relative viability,[7]; first compound 0.01 µM,0.967
same,relative viability,[7]; first compound 0.03162 µM,0.927
same,relative viability,[7]; first compound 0.1 µM,1.08
same,relative viability,[7]; first compound 0.3162 µM,1.05
same,relative viability,[7]; first compound 1 µM,1.02
same,relative viability,[8]; first compound 0.01 µM,0.314
same,relative viability,[8]; first compound 0.1 µM,0.388
same,relative viability,[8]; first compound 0.3162 µM,0.308
same,relative viability,[8]; first compound 1 µM,0.373
same,relative viability,[9]; first compound 0.01 µM,1.19
same,relative viability,[9]; first compound 0.03162 µM,1.33
same,relative viability,[9]; first compound 0.1 µM,1.17
same,relative viability,[9]; first compound 0.3162 µM,1.16
same,relative viability,[9]; first compound 1 µM,1.23
same,relative viability,[10]; first compound 0.01 µM,1.12
same,relative viability,[10]; first compound 0.03162 µM,1.1
same,relative viability,[10]; first compound 0.1 µM,1.16
same,relative viability,[10]; first compound 0.3162 µM,1.08
same,relative viability,[10]; first compound 1 µM,1.02
same,relative viability,[11]; first compound 0.01 µM,0.968
same,relative viability,[11]; first compound 0.03162 µM,0.821
same,relative viability,[11]; first compound 0.1 µM,1
same,relative viability,[11]; first compound 0.3162 µM,0.897
same,relative viability,[11]; first compound 1 µM,0.866
same,relative viability,[12]; first compound 0.01 µM,0.97
same,relative viability,[12]; first compound 0.03162 µM,0.994
same,relative viability,[12]; first compound 0.1 µM,1.02
same,relative viability,[12]; first compound 0.3162 µM,0.902
same,relative viability,[12]; first compound 1 µM,0.86
